The supplement of paper PMC11451515

System: SEM cells
Experiment: cell viability relative to DMSO control; higher = less cytotoxic
Conditions: 48 h
Procedure, shortened: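 Leukemia cells (NOMO1 or SEM, 500 cells/well; P12-Ichikawa, 1000 cells/well) were seeded in 5 μl in 1536-well plates after at least four passages of adaptation to each medium. They received library compounds in DMSO by pin dosing, 11 threefold points from 47 μM to 0.79 nM. Luminescence with CellTiter-Glo One was read after 48 h at 37°C. Viability is stated per plate relative to DMSO wells, with cell-free wells as background.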

[1] = HPLM + 10% dialyzed FBS, 0.000781 µM
[2] = HPLM + 10% dialyzed FBS, 0.00234 µM
[3] = HPLM + 10% dialyzed FBS, 0.00702 µM
[4] = HPLM + 10% dialyzed FBS, 0.0211 µM
[5] = HPLM + 10% dialyzed FBS, 0.0632 µM
[6] = HPLM + 10% dialyzed FBS, 0.19 µM
[7] = HPLM + 10% dialyzed FBS, 0.569 µM
[8] = HPLM + 10% dialyzed FBS, 1.71 µM
[9] = HPLM + 10% dialyzed FBS, 5.12 µM
[10] = HPLM + 10% dialyzed FBS, 15.4 µM
[11] = HPLM + 10% dialyzed FBS, 46.1 µM
[12] = RPMI 5 mM glucose + 10% FBS, 0.000781 µM
[13] = RPMI 5 mM glucose + 10% FBS, 0.00234 µM
[14] = RPMI 5 mM glucose + 10% FBS, 0.00702 µM
[15] = RPMI 5 mM glucose + 10% FBS, 0.0211 µM
[16] = RPMI 5 mM glucose + 10% FBS, 0.0632 µM
[17] = RPMI 5 mM glucose + 10% FBS, 0.19 µM
[18] = RPMI 5 mM glucose + 10% FBS, 0.569 µM
[19] = RPMI 5 mM glucose + 10% FBS, 1.71 µM
[20] = RPMI 5 mM glucose + 10% FBS, 5.12 µM
[21] = RPMI 5 mM glucose + 10% FBS, 15.4 µM
[22] = RPMI 5 mM glucose + 10% FBS, 46.1 µM
[23] = RPMI 5 mM glucose + 10% dialyzed FBS, 0.000781 µM
[24] = RPMI 5 mM glucose + 10% dialyzed FBS, 0.00234 µM
[25] = RPMI 5 mM glucose + 10% dialyzed FBS, 0.00702 µM
[26] = RPMI 5 mM glucose + 10% dialyzed FBS, 0.0211 µM
[27] = RPMI 5 mM glucose + 10% dialyzed FBS, 0.0632 µM
[28] = RPMI 5 mM glucose + 10% dialyzed FBS, 0.19 µM
[29] = RPMI 5 mM glucose + 10% dialyzed FBS, 0.569 µM
[30] = RPMI 5 mM glucose + 10% dialyzed FBS, 1.71 µM
[31] = RPMI 5 mM glucose + 10% dialyzed FBS, 5.12 µM
[32] = RPMI 5 mM glucose + 10% dialyzed FBS, 15.4 µM
[33] = RPMI 5 mM glucose + 10% dialyzed FBS, 46.1 µM

CO[C@H]1/C=C/O[C@@]2(C)Oc3c(C)c(O)c4c(c3C2=O)C2=NC3(CCN(CC(C)C)CC3)NC2=C(NC(=O)/C(C)=C/C=C/[C@H](C)[C@H](O)[C@@H](C)[C@@H](O)[C@@H](C)[C@H](OC(C)=O)[C@@H]1C)C4=O
cell viability [1]: 92.6% | cell viability [2]: 80.4% | cell viability [3]: 103% | cell viability [4]: 109% | cell viability [5]: 122% | cell viability [6]: 118% | cell viability [7]: 123% | cell viability [8]: 17.8% | cell viability [9]: 122% | cell viability [10]: 108% | cell viability [11]: 105% | cell viability [12]: 116% | cell viability [13]: 114% | cell viability [14]: 133% | cell viability [15]: 133% | cell viability [16]: 153% | cell viability [17]: 144% | cell viability [18]: 135% | cell viability [19]: 10.7% | cell viability [20]: 152% | cell viability [21]: 125% | cell viability [22]: 113% | cell viability [23]: 110% | cell viability [24]: 100% | cell viability [25]: 118% | cell viability [26]: 117% | cell viability [27]: 135% | cell viability [28]: 122% | cell viability [29]: 130% | cell viability [30]: 26.7% | cell viability [31]: 123% | cell viability [32]: 93% | cell viability [33]: 99.1%

Nc1ccc(C(=O)c2cc3c(ccc4ccccc43)[nH]2)cc1
cell viability [12]: 118% | cell viability [13]: 137% | cell viability [14]: 124% | cell viability [15]: 130% | cell viability [16]: 129% | cell viability [17]: 102% | cell viability [18]: 109% | cell viability [19]: 110% | cell viability [20]: 32.1% | cell viability [21]: 15.9% | cell viability [22]: 8.45% | cell viability [23]: 121% | cell viability [24]: 130% | cell viability [25]: 117% | cell viability [26]: 126% | cell viability [27]: 138% | cell viability [28]: 104% | cell viability [29]: 100% | cell viability [30]: 95% | cell viability [31]: 27.9% | cell viability [32]: 12.1% | cell viability [33]: 11.3%

Cc1ccc(Nc2cc(-c3cccc(N4C(=O)c5ccccc5C4=O)c3)ncn2)cc1N[S+](C)(=O)[O-]
cell viability [1]: 102% | cell viability [2]: 97.9% | cell viability [3]: 131% | cell viability [4]: 117% | cell viability [5]: 126% | cell viability [6]: 123% | cell viability [7]: 117% | cell viability [8]: 137% | cell viability [9]: 123% | cell viability [10]: 123% | cell viability [11]: 76.2% | cell viability [12]: 123% | cell viability [13]: 95.8% | cell viability [14]: 137% | cell viability [15]: 138% | cell viability [16]: 128% | cell viability [17]: 132% | cell viability [18]: 142% | cell viability [19]: 166% | cell viability [20]: 133% | cell viability [21]: 132% | cell viability [22]: 105% | cell viability [23]: 122% | cell viability [24]: 117% | cell viability [25]: 119% | cell viability [26]: 119% | cell viability [27]: 135% | cell viability [28]: 115% | cell viability [29]: 127% | cell viability [30]: 154% | cell viability [31]: 136% | cell viability [32]: 142% | cell viability [33]: 77.7%

OC[C@H]1O[C@H](C[C@@H]1O)N2/C=C(C(=O)NC2=O)/C(F)(F)F
cell viability [1]: 77.4% | cell viability [2]: 95.7% | cell viability [3]: 90.9% | cell viability [4]: 89.9% | cell viability [5]: 92.3% | cell viability [6]: 88.7% | cell viability [7]: 72.5% | cell viability [8]: 50.2% | cell viability [9]: 26.2% | cell viability [10]: 20.5% | cell viability [11]: 11.8% | cell viability [12]: 101% | cell viability [13]: 104% | cell viability [14]: 116% | cell viability [15]: 101% | cell viability [16]: 109% | cell viability [17]: 123% | cell viability [18]: 111% | cell viability [19]: 103% | cell viability [20]: 79.5% | cell viability [21]: 30.4% | cell viability [22]: 15.5% | cell viability [23]: 100% | cell viability [24]: 124% | cell viability [25]: 111% | cell viability [26]: 115% | cell viability [27]: 98.3% | cell viability [28]: 117% | cell viability [29]: 93.9% | cell viability [30]: 66.8% | cell viability [31]: 22.6% | cell viability [32]: 15.5% | cell viability [33]: 10.3%

O=C(O)c1cc(O)c2c(c1)C(=O)c1cccc(O)c1C2=O
cell viability [1]: 112% | cell viability [2]: 113% | cell viability [3]: 103% | cell viability [4]: 108% | cell viability [5]: 110% | cell viability [6]: 116% | cell viability [7]: 89.7% | cell viability [8]: 111% | cell viability [9]: 96.8% | cell viability [10]: 92.9% | cell viability [11]: 91.9% | cell viability [12]: 105% | cell viability [13]: 108% | cell viability [14]: 105% | cell viability [15]: 106% | cell viability [16]: 104% | cell viability [17]: 120% | cell viability [18]: 108% | cell viability [19]: 111% | cell viability [20]: 97.9% | cell viability [21]: 92.9% | cell viability [22]: 84.4% | cell viability [23]: 119% | cell viability [24]: 116% | cell viability [25]: 108% | cell viability [26]: 117% | cell viability [27]: 118% | cell viability [28]: 105% | cell viability [29]: 111% | cell viability [30]: 113% | cell viability [31]: 116% | cell viability [32]: 96.6% | cell viability [33]: 84.9%

CC[C@H]1OC(=O)[C@H](C)[C@@H](O[C@H]2C[C@@](C)(OC)[C@@H](O)[C@H](C)O2)[C@H](C)[C@@H](O[C@@H]2O[C@H](C)C[C@H](N(C)C)[C@H]2O)[C@](C)(OC)C[C@@H](C)C(=O)[C@H](C)[C@@H](O)[C@]1(C)O
cell viability [1]: 96.8% | cell viability [2]: 95.3% | cell viability [3]: 98.4% | cell viability [4]: 98.4% | cell viability [5]: 103% | cell viability [6]: 91.7% | cell viability [7]: 93.8% | cell viability [8]: 97.3% | cell viability [9]: 84.6% | cell viability [10]: 92.7% | cell viability [11]: 87.6% | cell viability [12]: 97% | cell viability [13]: 102% | cell viability [14]: 96% | cell viability [15]: 99% | cell viability [16]: 103% | cell viability [17]: 106% | cell viability [18]: 105% | cell viability [19]: 95.8% | cell viability [20]: 90.4% | cell viability [21]: 93.4% | cell viability [22]: 84.7% | cell viability [23]: 105% | cell viability [24]: 111% | cell viability [25]: 111% | cell viability [26]: 101% | cell viability [27]: 110% | cell viability [28]: 105% | cell viability [29]: 117% | cell viability [30]: 114% | cell viability [31]: 82.4% | cell viability [32]: 93% | cell viability [33]: 83.2%

COc1cc(C(=O)NC2CCN(C)CC2)ccc1Nc1ncc2c(n1)N(C1CCCC1)CCC(=O)N2C(C)C
cell viability [1]: 81.4% | cell viability [2]: 95.1% | cell viability [3]: 119% | cell viability [4]: 104% | cell viability [5]: 105% | cell viability [6]: 112% | cell viability [7]: 6.04% | cell viability [8]: 104% | cell viability [9]: 94.8% | cell viability [10]: 59.1% | cell viability [11]: 13.5% | cell viability [12]: 95.4% | cell viability [13]: 106% | cell viability [14]: 119% | cell viability [15]: 130% | cell viability [16]: 119% | cell viability [17]: 120% | cell viability [18]: 6.08% | cell viability [19]: 98.1% | cell viability [20]: 96.5% | cell viability [21]: 54.2% | cell viability [22]: 55.1% | cell viability [23]: 83.4% | cell viability [24]: 109% | cell viability [25]: 117% | cell viability [26]: 120% | cell viability [27]: 112% | cell viability [28]: 111% | cell viability [29]: 5.18% | cell viability [30]: 102% | cell viability [31]: 96.5% | cell viability [32]: 53.8% | cell viability [33]: 60.8%
